pEC50, pIC50: −log10 of the molar value. Where two headings read alike, the source gives them in different places.
Key:
[1] = MTT assay for cell viability; assay type: cell-based; conditions: human, Calu-3 cells, read-out: CC50 (cytotoxic concentration 50%)
[2] = test system: CD16 shedding; set-up: method as in PMID 28192188; conditions: 30 µM; PBMC co-cultured with hepatitis C virus-infected HuH7.5 cells; cited from earlier work
[3] = test system: SARS-CoV-2; assay: Plaques analysis (plaque dimension on Vero E6 cells); conditions: Vero E6 cells infected with supernatants of treated Calu-3 cells; mean diameter of 10 plaques
Experimental: In order to assess the levels of infective SARS-CoV-2 released by treated or untreated cells, a plaque assay was performed. Vero E6 were seeded in 12-well plates and infected with serial dilution (10-fold) of the supernatants derived from treated and infected Calu-3 cells. Plaques were visible five days after infection, then cells were methanol-fixed, stained with crystal violet (0.1%) and plaques were manually counted [26] (microscope NeXcope NE620). The experiments were run in triplicate.
After crystal violet (0.1%) staining for antiviral activity assessment, plaques forming unit were identified and measured in size. Dimension of plaques derived by cytopathic effect of SARS-CoV-2 in Vero E6 cells was evaluated by microscopy (NeXcope NE620). For each well, 5 different fields were manually selected, and at least 10 plaques for each condition were identified and measured using NeXcope visualization software (Capture V.2.0) and reported as mean diameter (mm) ± SD.

[4] = test system: SARS-CoV-2; assay type: cell-based
[5] = test system: ACE2 expression on Calu-3 cell surface; assay: ACE2 immunofluorescence assay on Calu-3 cell surface; assay type: cell-based, human; conditions: Calu-3 cells; for ACE2 expression on cell membranes (immunofluorescence): 25 µM, 24 h and 48 h, compared to untreated
Experimental: Calu-3 cells were incubated with a specific antibody against human angiotensin-converting enzyme 2 (ACE2) (SN0754 Thermo Fisher; Italy) as previously reported, followed by incubation with the FITC goat antirabbit IgG (H + L) secondary antibody (Thermo Fisher, Milan, Italy). Immunofluorescence was observed by fluorescence microscopy (Nikon Eclipse TE2000S, Milan, Italy). DNA was stained using DAPI (Thermo Fisher, Milan, Italy) to identify cell nuclei and reported as relative fluorescence units (RFU) compared to untreated control sample, by immunofluorescence quantification derived by the analysis of 5 different images derived by biological replicates, using Qupath software. In Brief, for each condition, the percentage of ACE2-positive stained cells was obtained considering the total DAPI-stained nuclei as 100% and then normalized on untreated control sample result and reported as fold difference value.
Considering the role of ACE2 receptor in viral entry into host cells, and the ability of ADAM17 to shed it from cell surface, we analyzed ACE2 expression on Calu-3 cell surface by immunofluorescence after 24 and 48 h of treatment with the three compounds, at the concentration of 25 µM (Fig. 4 and supplementary Figure S1).

[6] = target: T1, MMP-1 (Homo sapiens, UniProt P03956); conditions: isolated enzyme, fluorometric assay; cited from earlier work
T1 construct: purchased Merck Millipore 444208
T1 sequence (P03956 100-469): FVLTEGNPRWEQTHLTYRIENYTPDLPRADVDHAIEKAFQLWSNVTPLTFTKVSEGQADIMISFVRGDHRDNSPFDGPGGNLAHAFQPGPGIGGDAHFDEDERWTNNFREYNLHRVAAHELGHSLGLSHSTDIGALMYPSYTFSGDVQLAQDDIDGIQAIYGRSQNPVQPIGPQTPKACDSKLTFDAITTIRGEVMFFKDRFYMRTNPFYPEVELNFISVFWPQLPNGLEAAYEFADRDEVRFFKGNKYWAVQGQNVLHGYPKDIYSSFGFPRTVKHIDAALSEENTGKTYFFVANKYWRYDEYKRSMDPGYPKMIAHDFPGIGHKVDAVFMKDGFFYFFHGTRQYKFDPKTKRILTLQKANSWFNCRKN

[7] = test system: SARS-CoV-2; assay type: cell-based; remark: listed apart in the source
[8] = test system: sALCAM release; set-up: method as in PMID 24044434; conditions: ovarian cancer cell lines; cited from earlier work
[9] = test system: SARS-CoV-2; assay: microbe, parasite or virus in culture; assay type: cell-based; conditions: for pEC50: Severe acute respiratory syndrome coronavirus 2, Calu-3
[10] = target: T2, recombinant human ADAM17 (Homo sapiens, UniProt P78536); assay: Fluorometric enzyme inhibition assay, ADAM17; assay type: biochemical; conditions: isolated enzyme
T2 construct: purchased Merck Millipore PF133
T2 sequence (P78536 215-824): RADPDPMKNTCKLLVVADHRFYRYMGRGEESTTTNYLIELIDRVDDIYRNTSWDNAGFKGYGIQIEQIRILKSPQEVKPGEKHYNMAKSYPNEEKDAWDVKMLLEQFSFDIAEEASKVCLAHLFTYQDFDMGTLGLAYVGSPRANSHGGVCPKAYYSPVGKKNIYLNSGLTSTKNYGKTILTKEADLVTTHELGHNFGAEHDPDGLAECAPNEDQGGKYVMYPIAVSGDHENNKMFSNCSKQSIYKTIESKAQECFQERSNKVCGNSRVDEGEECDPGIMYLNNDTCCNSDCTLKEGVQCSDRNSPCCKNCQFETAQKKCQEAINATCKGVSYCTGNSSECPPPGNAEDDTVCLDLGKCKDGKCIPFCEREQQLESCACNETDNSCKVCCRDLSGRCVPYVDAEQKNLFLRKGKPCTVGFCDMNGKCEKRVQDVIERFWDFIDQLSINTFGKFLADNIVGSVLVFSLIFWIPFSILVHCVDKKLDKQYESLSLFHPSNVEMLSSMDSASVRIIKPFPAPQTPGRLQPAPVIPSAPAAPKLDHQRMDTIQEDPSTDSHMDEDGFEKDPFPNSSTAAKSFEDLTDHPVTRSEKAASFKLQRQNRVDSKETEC

[11] = target: T3, Recombinant human MMP-14 catalytic domain (Homo sapiens, UniProt P50281); assay: Fluorometric enzyme inhibition assay, MMP-14; assay type: biochemical; conditions: isolated enzyme
T3 construct: Recombinant human MMP-14 catalytic domain was a kind gift of Prof; Gillian Murphy; gift of Prof; Gillian Murphy (Department of Oncology, University of Cambridge, UK)

[12] = target: T4, Recombinant human ADAM10 (Homo sapiens, UniProt O14672); assay: Fluorometric enzyme inhibition assay, ADAM10; assay type: biochemical; conditions: isolated enzyme
T4 construct: purchased R&D Systems 936-AD
T4 sequence (O14672 214-748): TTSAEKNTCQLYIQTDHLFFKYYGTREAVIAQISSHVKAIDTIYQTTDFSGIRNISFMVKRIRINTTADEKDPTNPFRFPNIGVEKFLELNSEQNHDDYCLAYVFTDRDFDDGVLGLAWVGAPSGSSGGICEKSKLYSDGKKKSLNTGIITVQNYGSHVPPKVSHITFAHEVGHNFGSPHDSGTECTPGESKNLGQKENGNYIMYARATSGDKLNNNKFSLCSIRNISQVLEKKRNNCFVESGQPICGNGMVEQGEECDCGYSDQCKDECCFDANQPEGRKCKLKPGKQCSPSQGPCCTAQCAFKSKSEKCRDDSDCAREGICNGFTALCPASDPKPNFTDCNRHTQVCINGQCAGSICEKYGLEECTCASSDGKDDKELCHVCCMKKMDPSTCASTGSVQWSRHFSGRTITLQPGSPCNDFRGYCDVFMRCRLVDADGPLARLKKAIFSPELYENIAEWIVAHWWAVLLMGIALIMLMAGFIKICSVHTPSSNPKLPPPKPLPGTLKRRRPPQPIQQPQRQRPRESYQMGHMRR

[13] = target: T5, MMP-2 (Homo sapiens, UniProt P08253); assay: Fluorometric enzyme inhibition assay, MMP-2; assay type: biochemical; conditions: isolated enzyme
T5 construct: purchased Merck Millipore PF037
T5 sequence (P08253 110-660): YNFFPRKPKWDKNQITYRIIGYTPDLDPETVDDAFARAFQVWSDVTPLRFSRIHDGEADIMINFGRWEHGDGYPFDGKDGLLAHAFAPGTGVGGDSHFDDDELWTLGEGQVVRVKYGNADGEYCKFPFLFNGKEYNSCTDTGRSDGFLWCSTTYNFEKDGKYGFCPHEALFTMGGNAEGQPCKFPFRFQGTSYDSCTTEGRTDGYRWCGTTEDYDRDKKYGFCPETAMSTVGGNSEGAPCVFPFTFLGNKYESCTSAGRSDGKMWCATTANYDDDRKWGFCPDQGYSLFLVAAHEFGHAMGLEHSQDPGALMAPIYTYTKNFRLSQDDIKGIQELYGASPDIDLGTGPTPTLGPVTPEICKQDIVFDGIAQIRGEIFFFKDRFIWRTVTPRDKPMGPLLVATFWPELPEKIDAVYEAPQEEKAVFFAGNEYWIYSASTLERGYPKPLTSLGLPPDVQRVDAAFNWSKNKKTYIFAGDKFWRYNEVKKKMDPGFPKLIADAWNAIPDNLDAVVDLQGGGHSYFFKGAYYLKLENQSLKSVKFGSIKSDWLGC

[14] = target: T1, MMP-1; assay: Fluorometric enzyme inhibition assay, MMP-1; assay type: biochemical; conditions: isolated enzyme
[15] = target: T6, MMP-9 (Homo sapiens, UniProt P14780); assay: Fluorometric enzyme inhibition assay, MMP-9; assay type: biochemical; conditions: isolated enzyme
T6 construct: purchased Merck Millipore PF038
T6 sequence (P14780 107-707 limits assumed): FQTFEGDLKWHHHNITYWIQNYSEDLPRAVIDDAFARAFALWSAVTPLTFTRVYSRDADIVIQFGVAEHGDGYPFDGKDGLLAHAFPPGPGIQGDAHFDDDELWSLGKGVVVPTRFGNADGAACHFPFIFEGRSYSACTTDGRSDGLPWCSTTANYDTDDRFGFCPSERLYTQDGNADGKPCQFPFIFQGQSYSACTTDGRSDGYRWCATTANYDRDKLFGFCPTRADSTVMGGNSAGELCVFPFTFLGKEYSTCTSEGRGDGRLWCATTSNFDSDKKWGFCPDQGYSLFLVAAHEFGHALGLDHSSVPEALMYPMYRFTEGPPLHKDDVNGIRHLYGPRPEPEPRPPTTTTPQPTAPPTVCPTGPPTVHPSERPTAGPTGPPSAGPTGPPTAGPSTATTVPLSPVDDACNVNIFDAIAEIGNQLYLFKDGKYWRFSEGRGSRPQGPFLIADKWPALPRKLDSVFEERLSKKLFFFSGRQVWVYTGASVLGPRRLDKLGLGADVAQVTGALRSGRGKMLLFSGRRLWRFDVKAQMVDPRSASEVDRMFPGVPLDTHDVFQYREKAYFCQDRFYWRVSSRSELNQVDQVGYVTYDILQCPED

[16] = using CC50 values after 48 h of treatment

Compound	CC50 at 24 h [1] [µM]	CC50 at 48 h [1] [µM]	Plaque dimension (mm ± SD) [3] [mm]	ACE2 expression on cell membranes (immunofluorescence) [5]	pIC50 [6]	pEC50 [9]	SI (selectivity index, CC50/EC50) [9, 16]	other results
NC(=O)NCCC[C@@H](NS(=O)(=O)c1ccc(OCc2cc(Br)cc(Br)c2)cc1)C(=O)NO [JG26]	77.9	107	0.42± 0.2	increased ACE2 expression	< 3.30	5.09		reduction of CD16 shedding [2]: active; LR vs DMSO (viral load logarithmic reduction), RT-qPCR [4]: 2.37; LR vs DMSO (viral load logarithmic reduction), plaque assay [7]: 1.44; effect on viral infection at lower concentration [7]: did not show any effect; block of sALCAM release [8]: able to block sALCAM release; SI (selectivity index, CC50/EC50) [9]: 13.23
CC(=O)N[C@@H]1[C@@H](O)[C@H](O)[C@@H](CO)O[C@H]1NC(=S)NCCOCCOCCOCCOCCC(=O)NCCC[C@@H](NS(=O)(=O)c1ccc(OCc2cc(Br)cc(Br)c2)cc1)C(=O)NO [Compound 2, 1-(((2R, 3R, 4R, 5 S, 6R)-3-acetamido-4,5-dihydroxy-6-(hydroxymethyl)tetrahydro-2 H-pyran-2-yl)amino)-N-((R)-4-(4-((3,5-dibromobenzyl)oxy)phenylsulfonamido)-5-(hydroxyamino)-5-oxopentyl)-1-thioxo-5,8, 11, 14-tetraoxa-2-azaheptadecan-17-amide]	67.2	72	0.61± 0.23			4.87	5.29	pIC50 [10]: 8.26; pIC50 [11]: 4.15; pIC50 [12]: 6.09; pIC50 [13]: 6.49; pIC50 [14]: < 3.70; pIC50 [15]: 5.75
O=C(NCCC[C@@H](NS(=O)(=O)c1ccc(OCc2cc(Br)cc(Br)c2)cc1)C(=O)NO)c1cccc(C(=O)NCCC[C@@H](NS(=O)(=O)c2ccc(OCc3cc(Br)cc(Br)c3)cc2)C(=O)NO)c1 [Compound 1]	113	113	0.53± 0.19	increased ACE2 expression	< 3.70	4.90	8.91	
CCCCCCCCCCCCCC(=O)O[C@@H]1[C@@H](C)[C@@]2(O)[C@@H](C=C(CO)C[C@]3(O)C(=O)C(C)=C[C@@H]23)[C@@H]2C(C)(C)[C@]12OC(C)=O [PMA, Phorbol 12-myristate 13-acetate, reference compound]			0.82± 0.32					ACE2 expression (immunofluorescence), ADAM17 inductor control ([5]; PMA control, compared to untreated samples): slightly decreased ACE2 expression; effect on SARS-CoV-2 infection (plaque assay and genome titration) [7]: induced a sensible SARS-CoV-2 infection progression

Reference: publication PMC11743353 (Pharmacological Reports, 2024)
